According to ChEMBL document CHEMBL1201862, “PubChem BioAssay data set” (2004):
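48-hour exposure; five concentrations; linearly interpolated endpoints. GI50 = concentration required for 50% inhibition of growth.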 Activity calls are given as the source filed them. Cut-off read from the data, not from the text of the source: active = GI50 up to about 1.1 µM and inactive = higher.

Legend:
Test in all cases: NCI anticancer screen, dose series, 48 h
ACHN = test system: ACHN
HCC 2998 = test system: HCC 2998
HL-60 = test system: HL-60
HOP-62 = test system: HOP-62
Malme-3M = test system: Malme-3M
NCI-H226 = test system: NCI-H226
NCI-H522 = test system: NCI-H522
OVCAR-3 = test system: OVCAR-3
OVCAR-4 = test system: OVCAR-4
SF-295 = test system: SF-295
SF-539 = test system: SF-539
SK-MEL-28 = test system: SK-MEL-28
SK-MEL-2 = test system: SK-MEL-2
SR = test system: SR
U-251 = test system: U-251
UACC-62 = test system: UACC-62
RXF 393 = test system: RXF 393

SMILES	GI50 (ACHN)	GI50 (HCC 2998)	GI50 (HL-60)	GI50 (HOP-62)	GI50 (Malme-3M)	GI50 (NCI-H226)	GI50 (NCI-H522)	GI50 (OVCAR-3)	GI50 (OVCAR-4)	GI50 (SF-295)	GI50 (SF-539)	GI50 (SK-MEL-28)	GI50 (SK-MEL-2)	GI50 (SR)	GI50 (U-251)	GI50 (UACC-62)	GI50 (RXF 393)
NCCSc1nc(N)c2ncn(C3OC(CO)C(O)C3O)c2n1 (centres undefined)	> 100 µM (inactive)	> 100 µM (inactive)	> 100 µM (inactive)	> 100 µM (inactive)	> 100 µM (inactive)	> 100 µM (inactive)	> 100 µM (inactive)	> 100 µM (inactive)	> 100 µM (inactive)	> 100 µM (inactive)	> 100 µM (inactive)	> 100 µM (inactive)	> 100 µM (inactive)	> 100 µM (inactive)	> 100 µM (inactive)	> 100 µM (inactive)	
CN(C)CCNC(=O)c1cccc2c1nc(-c1ccncc1)c1ccccc12	1.65 µM (inactive)	2.6 µM (inactive)	1.36 µM (inactive)	3.78 µM (inactive)		1.95 µM (inactive)		5.35 µM (inactive)	4.01 µM (inactive)	2.85 µM (inactive)	2.03 µM (inactive)	5.15 µM (inactive)	6.12 µM (inactive)		2.34 µM (inactive)	1.88 µM (inactive)	2.3 µM (inactive)
Cc1ccc(Oc2ccc(C)cc2N)cc1		> 100 µM (inactive)	33.9 µM (inactive)	> 100 µM (inactive)	> 100 µM (inactive)	48.6 µM (inactive)		36 µM (inactive)	68.9 µM (inactive)	96.4 µM (inactive)	> 100 µM (inactive)	> 100 µM (inactive)	> 100 µM (inactive)	57.9 µM (inactive)	30.5 µM (inactive)	> 100 µM (inactive)	31.5 µM (inactive)
CC1=NN(c2ccccc2)C(=O)C1=C1SCCS1	97.1 µM (inactive)	> 87.1 µM (inactive)	> 40 µM (inactive)	> 100 µM (inactive)	> 67.6 µM (inactive)	> 64 µM (inactive)	43 µM (inactive)	34.9 µM (inactive)	> 100 µM (inactive)	> 71.8 µM (inactive)	> 100 µM (inactive)	> 100 µM (inactive)	> 100 µM (inactive)		> 53.2 µM (inactive)	> 62.2 µM (inactive)	37 µM (inactive)
CCOP(=O)(OCC)C(C(=O)OC)C(=O)C(=O)Nc1c(C)cc(Br)cc1C (centres undefined)	> 100 µM (inactive)	> 100 µM (inactive)	> 100 µM (inactive)	> 100 µM (inactive)	> 100 µM (inactive)	> 100 µM (inactive)	> 100 µM (inactive)	> 100 µM (inactive)	> 100 µM (inactive)		> 100 µM (inactive)	> 100 µM (inactive)	> 100 µM (inactive)		> 100 µM (inactive)	> 100 µM (inactive)	> 100 µM (inactive)
COc1ccc(C(=O)Cc2c(C(=O)c3ccccc3)c3ccccc3n2C(=O)c2ccccc2)cc1	53 µM (inactive)	> 100 µM (inactive)	38.3 µM (inactive)	> 100 µM (inactive)	> 100 µM (inactive)	> 100 µM (inactive)	47.1 µM (inactive)	37.7 µM (inactive)	32.2 µM (inactive)	31.3 µM (inactive)	> 100 µM (inactive)	> 100 µM (inactive)	> 100 µM (inactive)	23.8 µM (inactive)	78.2 µM (inactive)	94 µM (inactive)	
O=[N+]([O-])c1cccc(C2=NOC3C4CCC(C4)C23)c1 (centres undefined)	> 100 µM (inactive)	> 100 µM (inactive)		> 100 µM (inactive)	> 100 µM (inactive)	> 100 µM (inactive)	> 100 µM (inactive)	> 100 µM (inactive)	> 100 µM (inactive)	> 100 µM (inactive)	> 100 µM (inactive)	> 100 µM (inactive)	> 100 µM (inactive)	> 100 µM (inactive)	> 100 µM (inactive)		
COc1ccc2nc(-c3ccc(OCc4ccccc4)cc3)ccc2c1	> 100 µM (inactive)	> 100 µM (inactive)	> 100 µM (inactive)	> 100 µM (inactive)	> 100 µM (inactive)	> 100 µM (inactive)	> 100 µM (inactive)	> 100 µM (inactive)	> 100 µM (inactive)	> 100 µM (inactive)	> 100 µM (inactive)	> 100 µM (inactive)		> 100 µM (inactive)		> 100 µM (inactive)	> 100 µM (inactive)
COc1ccc2oc3c4c2c1CCC4CCC3=O (centres undefined)	> 100 µM (inactive)	> 100 µM (inactive)	> 100 µM (inactive)	> 100 µM (inactive)	> 100 µM (inactive)		58.2 µM (inactive)	> 100 µM (inactive)	33 µM (inactive)	> 100 µM (inactive)	> 100 µM (inactive)	> 100 µM (inactive)	> 100 µM (inactive)	> 100 µM (inactive)	> 100 µM (inactive)	> 100 µM (inactive)	36.1 µM (inactive)
CCC1CN2CCc3c([nH]c4ccccc34)C2C[C@@H]1CC(=O)N(C)C (some centres undefined)	> 100 µM (inactive)	> 100 µM (inactive)	> 100 µM (inactive)	> 100 µM (inactive)	> 100 µM (inactive)	> 100 µM (inactive)	> 100 µM (inactive)	> 100 µM (inactive)	> 100 µM (inactive)	> 100 µM (inactive)	> 100 µM (inactive)	> 100 µM (inactive)	> 100 µM (inactive)	78.7 µM (inactive)	> 100 µM (inactive)		> 100 µM (inactive)
COCCOCOC(CCCCO)c1cc(C)c(O[Si](C)(C)C(C)(C)C)c(C)c1 (centres undefined)	7.62 µM (inactive)	7.03 µM (inactive)	1.59 µM (inactive)	10.8 µM (inactive)	2.47 µM (inactive)	2.41 µM (inactive)	1.64 µM (inactive)	5.83 µM (inactive)		3.97 µM (inactive)	12.4 µM (inactive)	12.3 µM (inactive)	8.89 µM (inactive)		10.8 µM (inactive)	12.2 µM (inactive)	2.26 µM (inactive)
O=C(Cc1ccccc1)N/N=C(\C1=Nc2ccc([N+](=O)[O-])cc2NC1O)C(O)c1ccc([N+](=O)[O-])cc1 (centres undefined)	78 µM (inactive)	99.5 µM (inactive)	19.9 µM (inactive)	> 100 µM (inactive)	> 100 µM (inactive)	> 100 µM (inactive)	7.89 µM (inactive)	> 100 µM (inactive)	> 10 µM (inactive)	53.1 µM (inactive)	> 100 µM (inactive)		> 100 µM (inactive)	> 100 µM (inactive)	> 100 µM (inactive)	54 µM (inactive)	> 100 µM (inactive)
Cc1c(C(=O)/C=C/c2ccco2)[n+]([O-])c2ccccc2[n+]1[O-]	> 100 µM (inactive)	> 100 µM (inactive)	42 µM (inactive)		> 100 µM (inactive)	> 100 µM (inactive)	58.9 µM (inactive)	> 100 µM (inactive)		> 100 µM (inactive)	> 100 µM (inactive)	> 100 µM (inactive)		55.2 µM (inactive)		> 100 µM (inactive)	> 100 µM (inactive)
Cc1cc(N(CCC#N)CCC#N)ccc1/C=C1N=C(/C=C/c2ccccc2)N(c2ccc(S(N)(=O)=O)cc2)C\1=O	> 100 µM (inactive)		> 100 µM (inactive)	> 100 µM (inactive)	> 100 µM (inactive)	> 100 µM (inactive)	> 100 µM (inactive)	> 100 µM (inactive)	> 100 µM (inactive)	> 100 µM (inactive)	> 100 µM (inactive)	> 100 µM (inactive)	> 100 µM (inactive)	> 100 µM (inactive)	> 100 µM (inactive)	> 100 µM (inactive)	
O=C(O)CNS(=O)(=O)c1ccc(NCc2ccccc2)cc1	> 100 µM (inactive)	> 100 µM (inactive)		> 100 µM (inactive)	> 100 µM (inactive)	> 100 µM (inactive)	> 100 µM (inactive)		> 100 µM (inactive)		> 100 µM (inactive)	> 100 µM (inactive)	> 100 µM (inactive)		> 100 µM (inactive)	> 100 µM (inactive)	> 100 µM (inactive)
CC1C2=CC=C(O2)C(C)(C)C2=CC=C(O2)C(C)(C)C2=CC=C(O2)C(C)(C)C2=CC=C1O2	> 100 µM (inactive)	> 100 µM (inactive)	> 100 µM (inactive)	> 100 µM (inactive)	> 100 µM (inactive)	> 100 µM (inactive)	> 100 µM (inactive)		> 100 µM (inactive)	> 100 µM (inactive)	> 100 µM (inactive)	> 100 µM (inactive)	> 100 µM (inactive)	> 100 µM (inactive)	> 100 µM (inactive)		> 100 µM (inactive)
Oc1cc(-c2ccccn2)nc2cccc(F)c12	> 100 µM (inactive)	0.641 µM (active)	> 100 µM (inactive)	> 100 µM (inactive)		> 100 µM (inactive)	> 100 µM (inactive)	> 100 µM (inactive)	> 100 µM (inactive)	> 100 µM (inactive)	> 100 µM (inactive)	0.644 µM (active)		> 100 µM (inactive)		95.3 µM (inactive)	> 100 µM (inactive)
CC1=C(C(=O)Nc2cccc(Cl)c2)C(c2ccccc2F)C(C(=O)Nc2cccc(Cl)c2)=C(C)N1	9.98 µM (inactive)	7.57 µM (inactive)	3.78 µM (inactive)	15.8 µM (inactive)	15.8 µM (inactive)	11.3 µM (inactive)	9.16 µM (inactive)	10.8 µM (inactive)	5.83 µM (inactive)	17.3 µM (inactive)	13.9 µM (inactive)	10.6 µM (inactive)	11.6 µM (inactive)		12.6 µM (inactive)		7.24 µM (inactive)
